According to article PMC12527922, “Cocaine chemogenetics blunts drug-seeking by synthetic physiology” (Nature, 2025):
Values joined by “and” are separate entries in the source; they are usually repeats but may differ in a detail not shown here. Equal entries are not always repeated.

Key:
[1] = target: T1, unmodified α7–5HT3 (UniProt P23979+P36544); parameters: method as in PMID 30872534; details: cited from earlier work
T1 construct: expressed in transfected cells; host or cells: HEK293 (ATCC CRL-1573), pcDNA3.1
T1 sequence (P36544+P23979 fused P36544:T225I/P36544:M226I): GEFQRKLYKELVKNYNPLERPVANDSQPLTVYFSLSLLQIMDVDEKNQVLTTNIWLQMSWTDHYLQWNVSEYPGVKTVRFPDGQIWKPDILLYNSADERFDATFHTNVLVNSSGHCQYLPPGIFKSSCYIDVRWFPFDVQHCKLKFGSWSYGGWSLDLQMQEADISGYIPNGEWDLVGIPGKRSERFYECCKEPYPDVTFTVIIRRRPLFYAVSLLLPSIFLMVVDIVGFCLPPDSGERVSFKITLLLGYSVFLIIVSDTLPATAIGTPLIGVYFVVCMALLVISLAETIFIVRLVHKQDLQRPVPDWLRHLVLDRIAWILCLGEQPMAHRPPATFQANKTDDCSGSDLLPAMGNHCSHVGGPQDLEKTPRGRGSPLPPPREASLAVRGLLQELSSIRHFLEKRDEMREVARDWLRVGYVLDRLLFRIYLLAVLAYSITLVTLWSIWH

[2] = target: T2, unmodified α7–GlyR (Homo sapiens, UniProt P23415+P36544); parameters: method as in PMID 30872534; details: cited from earlier work
T2 construct: expressed in transfected cells; host or cells: HEK293 (ATCC CRL-1573), pcDNA3.1
T2 sequence (P36544+P23415 fused): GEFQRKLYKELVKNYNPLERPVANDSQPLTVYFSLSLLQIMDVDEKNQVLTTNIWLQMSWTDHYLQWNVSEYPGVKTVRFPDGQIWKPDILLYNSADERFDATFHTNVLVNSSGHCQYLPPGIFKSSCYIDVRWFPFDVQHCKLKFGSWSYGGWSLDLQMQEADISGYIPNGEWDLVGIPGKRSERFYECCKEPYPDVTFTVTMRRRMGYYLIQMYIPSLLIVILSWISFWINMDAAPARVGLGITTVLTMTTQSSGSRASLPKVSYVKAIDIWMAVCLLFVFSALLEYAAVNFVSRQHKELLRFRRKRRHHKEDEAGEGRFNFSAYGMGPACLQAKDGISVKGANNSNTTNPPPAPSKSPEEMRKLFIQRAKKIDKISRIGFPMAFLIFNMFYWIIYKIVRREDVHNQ

[3] = tested on: α7 nAChR; details: cited from earlier work
[4] = target: coca-5HT3 (Homo sapiens, UniProt P36544, G175K/L141G/Y210F/Y217F); experiment: [^3H]ASEM displacement, membranes of HEK293 cells expressing coca-5HT3; format: binding, human α7 nAChR LBD, mouse 5HT3 IPD; details: for [3H]ASEM binding, normalised dose-response (DR replicates): HotNM 2.000
Sequence of coca-5HT3 (P23979 242-489): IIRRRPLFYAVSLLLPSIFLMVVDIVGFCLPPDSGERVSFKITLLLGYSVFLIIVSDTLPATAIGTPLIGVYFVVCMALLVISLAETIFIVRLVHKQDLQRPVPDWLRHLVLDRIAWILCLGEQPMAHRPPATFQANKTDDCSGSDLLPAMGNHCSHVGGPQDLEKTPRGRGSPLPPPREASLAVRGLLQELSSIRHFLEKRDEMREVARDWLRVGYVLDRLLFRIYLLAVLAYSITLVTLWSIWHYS
Sequence of coca-5HT3 (P36544 23-224 L141G/G175K/Y210F/Y217F): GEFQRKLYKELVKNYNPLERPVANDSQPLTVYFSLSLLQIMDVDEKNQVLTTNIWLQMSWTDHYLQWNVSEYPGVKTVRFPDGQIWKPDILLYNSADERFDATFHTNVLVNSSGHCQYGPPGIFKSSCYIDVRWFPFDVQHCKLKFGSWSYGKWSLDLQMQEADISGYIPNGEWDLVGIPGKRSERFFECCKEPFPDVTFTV
Experimental: (§1) Cells were suspended in Tris-HCl 50 mM pH 7.4 supplemented with protease inhibitor cocktail (1:100, Sigma-Aldrich). HEK293 cells were disrupted with a 6 Polytron homogenizer (Kinematica). Homogenates were centrifuged at 48,000g (50 min, 4 °C) and washed twice in the same conditions to isolate the membrane fraction. Protein was quantified using the bicinchoninic acid method (Pierce). […] Free and membrane-bound radioligands were separated by rapid filtration of 500 μl aliquots in a 96-well plate harvester (Brandel) and washed with 2 ml of ice-cold Tris-HCl buffer. Microscint-20 scintillation liquid (65 μl per well, PerkinElmer) was added to the filter plates, plates were incubated overnight at room temperature and radioactivity counts were determined in the MicroBeta2 plate counter (PerkinElmer) with an efficiency of 41%. Two-site competition curves were fitted using Prism 10 (GraphPad). Ki values were calculated using the Cheng–Prusoff equation.

[5] = target: T3, coca-GlyR (Homo sapiens, UniProt P23415+P36544, G175K/L141G/Y217F); experiment: [^3H]ASEM displacement, membranes of HEK293 cells expressing coca-GlyR; format: binding
T3 construct: expressed in transfected cells; host or cells: HEK293 (ATCC CRL-1573), pcDNA3.1
T3 sequence (P36544+P23415 fused P36544:L141G/P36544:G175K/P36544:Y217F): as the sequence (P36544+P23415 fused) above, with L119G, G153K, Y195F counted along it
Experimental: as §1

[6] = Two sites - Fit Ki, best-fit value per replicate
[7] = Two sites - Fit Ki, best-fit value, single experiment

For CN1[C@@H]2CC[C@H]1C[C@@H](OC(=O)c1c[nH]c3ccccc13)C2 [tropisetron], the “activity at chimeric channel α7–5HT3” value [1] is listed as “agonist”, the “activity at chimeric channel α7–GlyR” value [2] is listed as “agonist” and the “activity at α7 nAChR” value [3] is listed as “agonist”.

With O=S1(=O)c2cc(N3CCN4CCC3CC4)ccc2-c2cccc(F)c21 [ASEM] the “binding to coca-5HT3” value [4] was “biphasic manner”, the “FractionHi MEAN” value ([4]; Two sites - Fit Ki, MEAN of 3 experiments) was 0.4238 and the Bottom [4, 6] was -0.2261 and -1.876 and -13.02. The Top [4, 6] was 108.2 and 99.61 and 97.94, the FractionHi ([4]; Two sites - Fit Ki, best-fit value per replicate, fraction of high-affinity sites) was 0.4342 and 0.3061 and 0.4229 and the FractionHi [4, 7] was 0.4739 and 0.3529 and 0.4445. For the same compound, the Top [4, 7] was 103.6 and 103.2 and 103.8, the “FractionHi MEAN” value ([4]; Two sites - Fit Ki, MEAN of replicates) was 0.3877 and the “[3H]ASEM binding, normalised dose-response (DR replicates)” value ([4]; competitor log(M) -4) was 0 and 2.042 and -2.042. The “[3H]ASEM binding remaining, single experiment” value (“[3H]ASEM binding remaining” below) ([4]; competitor log(M) -5) was 21.992 and 15.466 and 20.212, the “[3H]ASEM binding, normalised dose-response (DR replicates)” value ([4]; competitor log(M) -5) was 13.773 and 20.58 and the “[3H]ASEM binding remaining” value ([4]; competitor log(M) -5.5) was 26.835 and 27.725. For the same compound, the “[3H]ASEM binding, normalised dose-response (DR replicates)” value ([4]; competitor log(M) -5.5) was 32.147 and 34.87 and 51.889, the “[3H]ASEM binding remaining” value ([4]; competitor log(M) -6) was 38.451 and 39.34 and the “[3H]ASEM binding, normalised dose-response (DR replicates)” value ([4]; competitor log(M) -6) was 39.688 and 59.43 and 60.791. The “[3H]ASEM binding remaining” value ([4]; competitor log(M) -6.5) was 45.049 and 48.906 and 53.356, the “[3H]ASEM binding, normalised dose-response (DR replicates)” value ([4]; competitor log(M) -6.5) was 51.256 and 70.998 and 34.237 and the “[3H]ASEM binding remaining” value ([4]; competitor log(M) -7) was 68.627 and 77.823 and 60.024. For the same compound, the “[3H]ASEM binding, normalised dose-response (DR replicates)” value ([4]; competitor log(M) -7) was 64.248 and 83.99 and 53.356, the “[3H]ASEM binding remaining” value ([4]; competitor log(M) -8) was 69.758 and 69.462 and 44.246 and the “[3H]ASEM binding, normalised dose-response (DR replicates)” value ([4]; competitor log(M) -8) was 67.668 and 43.16. The “[3H]ASEM binding remaining” value ([4]; competitor log(M) -8.5) was 79.055 and 76.385 and 69.859, the “[3H]ASEM binding, normalised dose-response (DR replicates)” value ([4]; competitor log(M) -8.5) was 58.761 and 45.827 and 64.888 and the “[3H]ASEM binding remaining” value ([4]; competitor log(M) -9) was 118.645 and 95.803 and 67.325. For the same compound, the “[3H]ASEM binding, normalised dose-response (DR replicates)” value ([4]; competitor log(M) -9) was 68.4 and 67.719, the “[3H]ASEM binding remaining” value ([4]; competitor log(M) -9.5) was 111.297 and 122.273 and 76.589 and the “[3H]ASEM binding, normalised dose-response (DR replicates)” value ([4]; competitor log(M) -9.5) was 73.805 and 71.082 and 77.209. For the same compound, the “[3H]ASEM binding remaining” value ([4]; competitor log(M) -10) was 101.728 and 95.202 and 81.556, the “[3H]ASEM binding, normalised dose-response (DR replicates)” value ([4]; competitor log(M) -10) was 78.63 and 99.734 and 90.884 and the “[3H]ASEM binding remaining” value ([4]; competitor log(M) -10.5) was 92.261 and 100.567 and 96.414. For the same compound, the “[3H]ASEM binding, normalised dose-response (DR replicates)” value ([4]; competitor log(M) -10.5) was 94.278 and 80.663 and 86.79, the “[3H]ASEM binding remaining” value ([4]; competitor log(M) -11) was 96.153 and 103.569 and 104.162 and the “[3H]ASEM binding, normalised dose-response (DR replicates)” value ([4]; competitor log(M) -11) was 97.033 and 84.779 and 104.521. The “[3H]ASEM binding remaining” value ([4]; competitor log(M) -13) was 102.966 and 93.474 and 103.56, the “[3H]ASEM binding, normalised dose-response (DR replicates)” value ([4]; competitor log(M) -13) was 111.346 and 109.984 and the “binding to coca-GlyR” value [5] was “biphasic manner”.
